Measured values taken from US20070060549A1, “COMBINATION THERAPIES EMPLOYING ACE INHIBITORS AND USES THEREOF FOR THE TREATMENT OF DIABETIC DISORDERS” (priority 2004, published 2007).

Assays:
[1] = Phase I pharmacokinetics of P5P; format: in vivo, human; conditions: Phase I dose levels; small numbers of subjects, large inter-subject variability
Description: (§1) In a Phase I single dose tolerance study, conducted in accordance with generally accepted clinical practice standards, groups of six patients were tested at 15 mg/kg, 30 mg/kg, and 60 mg/kg (enteric coated tablets). […] Four subjects in the 60 mg/kg dose group reported a total of 10 adverse events including diarrhea, bradycardia, bubbly stomach, flatulence, and headaches that were mild in severity.

[2] = tested on: diabetic hypertensive patients; assay: Phase II clinical study of P5P: glycated hemoglobin (HbA1c); format: in vivo, human; conditions: patients with clinically elevated HbA1c at start; 250, 500, 750 mg P5P two weeks each, then 4-week washout
Description: In a phase II clinical study, conducted in accordance with generally accepted clinical practice standards, diabetic hypertensive patients were treated with P5P. Glucose control was determined by measuring glycated hemoglobin levels (HbA1c). Four weeks prior to treatment, patients ceased all antihypertensive therapy. Following the washout period, baseline HbA1c measurements were taken. Patients were than treated with 250 mg, 500 mg, and 750 mg of P5P for two weeks at each dosage. P5P treatment was then discontinued for 4 weeks. Following the washout period, HbA1c measurements were taken.

patients [3] = assay: Phase I multi-dose tolerance study of P5P; format: in vivo, human
rats [4] = assay: 14-day oral administration of P5P to rats; format: in vivo, rat; conditions: orally 50 mg/kg for 14 days
Description: (§2) As a prelude to human clinical studies, the toxicology of P5P was assessed by conventional means using two animal species, rats and dogs. […] Long term studies, 13-week oral toxicity in dogs, and 26-week oral toxicity in rats, were completed.

patients [5] = assay: Phase I single dose tolerance study of P5P; format: in vivo, human
Description: as §1

rats [6] = assay: 26-week oral toxicity in rats; format: in vivo; conditions: 26-week rat study
Description: as §2

dogs [7] = assay: 13-week oral toxicity in dogs; format: in vivo; conditions: 13-week dog study
Description: as §2

dogs [8] = assay: Acute toxicity evaluation of P5P in dogs; format: in vivo, dog; conditions: doses up to 100 mg/kg
Description: as §2

rat = assay: Acute toxicity evaluation of P5P in the rat; format: in vivo; conditions: doses up to 5 g/kg
Description: as §2

[9] = tested on: hypertensive patients with type 2 diabetes; conditions: 8 weeks
Description: Summary of Study Design—The phase II study was a randomized, parallel group, cross-over, double-blinded to study medication, placebo-controlled comparison of P5P BID at total daily doses of 100, 300 or 1000 mg alone and in combination with 20 mg lisinopril given once daily (QD). In order to protect against antihypertensive and metabolic carry-over effects of lisinopril, 160 patients were randomized in 2 different treatment sequences. Patients randomized in the first treatment sequence received an 8-week treatment with lisinopril 20 mg and P5P (or placebo) and then an 8-week treatment with P5P alone (or placebo). […]
Mean trough sitting and standing BP were measured at each visit. […]
Ambulatory blood pressure (ABP) was measured using a SpaceLabs Medical ABPM Monitor Model 90207 (SpaceLabs Medical Inc., Redmond, Wash.). […] Following the initiation of two manual readings, a third manual reading was initiated and began the 24-hour monitoring period. […] A manual reading was initiated at the end of the 24-hour period to ensure that there was at least one data point in the last hour of the 24-hour period. Subjects were instructed to initiate a manual reading should they be late for their scheduled clinic appointment to ensure that a reading in the last hour of the 24-hour period was not missed. On completion of the readings, the ABPM device was removed from the subject. […]

Row | Structure (SMILES) | dose-linearity of pharmacokinetics [1] | reduction in HbA1c levels as compared to baseline [2] | tolerance (patients [3]; multi-dose 30 mg/kg, one patient withdrew due to vomiting and diarrhea) | tolerance (patients [3]; multi-dose 60 mg/kg) | signs of toxicity (rats [4]) | adverse events (patients [5]; single dose 15 mg/kg, enteric coated tablets, six patients) | adverse events (patients [5]; single dose 30 mg/kg, enteric coated tablets, six patients) | subjects reporting adverse events (patients [5]; single dose 60 mg/kg, enteric coated tablets, six patients) | total adverse events (patients [5]; single dose 60 mg/kg, diarrhea, bradycardia, bubbly stomach, flatulence, headaches, mild in severity) | findings of toxicological significance (rats [6]; any dose level (50, 100/175, 175/325 mg/kg)) | findings in high dose group (rats [6]; high dose group) | drug related toxicities (dogs [7]; 10 and 25 mg/kg) | recovery (dogs [7]; 50-60 mg/kg group, recovery phase) | findings in high dose group (dogs [7]; 50-60 mg/kg, all other findings mild to moderate) | acute toxicity (dogs [8]) | acute toxicity (rat) | reduction in MDASBP from baseline ([9]; lisinopril 20 mg/dose and placebo, p=0.002) | reduction in MDADBP from baseline ([9]; lisinopril 20 mg/dose plus placebo, p=0.005)
1 | Cc1ncc(COP(=O)(O)O)c(C=O)c1O [P5P, pyridoxal-5′-phosphate] | did not demonstrate dose-linearity | 5.4% | five of six patients treated with 30 mg/kg P5P tolerated the medication well | all 6 treated patients experiencing a variety of mild gastrointestinal symptoms | no signs of toxicity | No adverse events were reported | One subject in the 30 mg/kg dose group experienced events of dizziness and sleepiness | Four | 10 | No findings of toxicological significance | reversible reduction in body weight gain and increased incidence of stomach microulcers | no drug related toxicities were observed | recovered almost completely | anorexia and body weight loss | no significant toxicity | no significant toxicity | – | –
2 | NCCCC[C@H](N[C@@H](CCc1ccccc1)C(=O)O)C(=O)N1CCC[C@H]1C(=O)O [lisinopril] | – | – | – | – | – | – | – | – | – | – | – | – | – | – | – | – | 7.5 mmHg | 4.1 mmHg
